From patent US11512042B2, “Enamine compounds for absorbance of electromagnetic energy” (Commonwealth Scientific and Industrial Research Organisation, priority 2015, dated 2022)
Several values for one entry are separate records, joined by “and”; a condition that tells them apart may be missing. Equal entries are not always repeated.

Legend:
Type in all cases: physicochemical
[1] = UV absorbance spectrum in solution (λmax, λcrit, extinction coefficients); conditions: for λcrit: critical wavelength; for E (1%, 1 cm): mass extinction coefficient; for ε: molar extinction coefficient, in M-1 cm-1 (unit assumed)
From the text: (§1) FIG. 1 is a graphical representation of the absorbance of compounds 142 and 143 measured in a 10 mm cuvette as 0.001% solutions in methanol (142 is the uppermost trace at peak point of approximately 330 nm); The synthesised benzoyl functionalised compounds and their spectroscopic properties can be seen in table 2 wherein; breakthrough denotes the value in nm where transmittance increases beyond 1%; steepness refers to the distance in nm over which transmittance increases from 1 to 80% (a higher value indicates a less steep transition from absorbing to transmitting and is generally unfavourable); and ^a denotes an average of multiple measurements. As a general comment, it can be noted that the benzoyl substituted compounds gave similar absorbance maxima to the corresponding trifluoroacetyl derivative.

[2] = % transmission spectrum of 0.1% solution (breakthrough, steepness); conditions: for Steepness: distance in nm over which transmittance increases from 1 to 80%; for Breakthrough (1% T at 0.1%): value in nm where transmittance increases beyond 1%, 0.1% solution
From the text: FIG. 2 is a is a graphical representation of the % transmission of compounds 142 and 143 measured in a 2 mm cuvette as 0.1% solutions in methanol (142 is the left most trace);
as §1, with “The” for “FIG. 1 is a graphical representation of the absorbance of compounds 142 and 143 measured in a 10 mm cuvette as 0.001% solutions in methanol (142 is the uppermost trace at peak point of approximately 330 nm); The”

[3] = Photostability protocol: thin film irradiated with xenon arc lamp; conditions: 1 hour xenon arc lamp
Description: 1 mL of a 3% solution of the test compound (30 mg of test compound in 1 mL solvent) was prepared in a solvent mix made up of 50% EtOH and 25% capric/caprylic triglyceride and 25% C12-C15 alkyl benzoate. 50 μL of this solution (containing 1.5 mg of test compound) was added carefully to the centre of a glass microscope slide and the volatile components left to evaporate in the dark for at least 3 hours to give a liquid film. The prepared films were then exposed for 1 hour to an Eimac 150 W xenon arc lamp filtered through Pyrex (15 Amp supply current, samples 19 cm from the lamp) previously allowed to warm up for 15 minutes prior to sample exposure. The irradiation was performed in a fume cupboard where the air flow was sufficient to keep sample T<30° C. One hour's exposure represented a calculated radiation dose (using meter) of approximately 100 MED.
In order to calculate the photostability of the test compounds, the exposed slides were placed in a beaker and rinsed with 2×5 mL EtOH, 1×5 mL MeOH. The combined washings were then added to a 100 mL volumetric flask and made up to 100 mL total volume with methanol. The UV absorbance was then measured in a 10 mm cuvette. The percent stability is measured as the ratio of absorbance at λmax for the irradiated sample compared to the unirradiated sample.
The thin films are a good surrogate for testing the stability of a candidate in, for example, a sunscreen formulation as they use cosmetic emollients as solvent and are formed at cosmetically relevant concentrations.

Compound | λmax [1] [nm] | λcrit [1] [nm] | E (1%, 1 cm) [1] | ε [1] | Steepness [2] [nm] | Breakthrough (1% T at 0.1%) [2] [nm] | Photostability (% remains) [3] [%] | Photostability ([3]; ratio of absorbance at λmax irradiated vs unirradiated, ^a = average of multiple measurements) [%]
CCCCCCC(=O)C1=CN(c2ccc(N3C=C(C(=O)CCCCCC)C(C)(C)CC3)cc2)CCC1(C)C [Compound 129, reference compound] | 359 | 378 | 1169 and 1350 | 60809 and 70222 | 20 | 397 | – | –
CCN(/C=C(\C(C)=O)c1ccccc1)CC [Compound 149] | 294 | – | 690 | 14973 | – | – | 6 | –
CCOC(=O)/C(=C\N(C)C)c1ccccc1 [Compound 171] | 291 | – | 1169 | 22598 | – | – | 18 | –
CN(/C=C(\C(=O)C(F)(F)F)c1ccccc1)c1ccccc1 [Compound 183] | 332 | 367 | 759 | 23153 | – | – | 90 | 90
CCN(/C=C(\C(=O)C(F)(F)C(F)(F)C(F)(F)F)c1ccccc1)c1ccccc1 [Compound 191] | 332 | 370 | 452 | 18948 | – | – | 95 | –
O=C(/C(=C\N1CCCN(/C=C(/C(=O)C(F)(F)F)c2ccccc2)CC1)c1ccccc1)C(F)(F)F [Compound 210] | 326 | 356 | 819 | 40611 | – | – | – | –
CC1CCc2ccccc2N1/C=C(\C(=O)C(F)(F)F)c1ccccc1 (stereo not shown) [Compound 211] | 350 | 380 | 837 | 28907 | – | – | – | –
O=C(/C(=C\N1CCc2cc(Br)ccc21)c1ccccc1)C(F)(F)F [Compound 214] | 371 | 390 | 994 | 39265 | – | – | – | –
CCN(/C=C(\C(=O)C(F)(F)F)c1ccccc1)c1ccc(Br)cc1 [Compound 216] | 332 | 367 | 651 | 25865 | – | – | – | –
O=C(/C(=C\N1CCCCc2ccccc21)c1ccccc1)C(F)(F)F [Compound 217] | 324 | 359 | 843 | 29114 | – | – | – | –
CCN(CCOC(=O)c1ccc2c(c1)CCN2/C=C(\C(=O)C(F)(F)F)c1ccccc1)C(=O)OC(C)(C)C [Compound 218] | 375 | 391 | 833 | 44357 | – | – | – | –
CN(/C=C(\C(=O)C(F)(F)F)c1ccccc1)c1ccc([N+](=O)[O-])cc1 [Compound 219] | 376 | 391 | 710 | 24860 | – | – | – | –
CCCCC(CC)COc1ccc(N(/C=C(\C(=O)C(F)(F)F)c2ccccc2)CC)cc1 (stereo not shown) [Compound 220] | 332 | 371 | 532 | 23819 | – | – | – | –
CCCCC(CC)COc1cccc(N(/C=C(\C(=O)C(F)(F)F)c2ccccc2)CC)c1 (stereo not shown) [Compound 221] | 332 | 366 | 490 | 21876 | – | – | – | –
Cc1ccccc1N(/C=C(\C(=O)C(F)(F)F)c1ccccc1)c1ccccc1 [Compound 223] | 344 | 377 | 679 | 25885 | – | – | – | –

Continued, values first:

λmax [1] [nm] | λcrit [1] [nm] | E (1%, 1 cm) [1] | ε [1] | Steepness [2] [nm] | Breakthrough (1% T at 0.1%) [2] [nm] | Photostability (% remains) [3] [%] | Photostability ([3]; ratio of absorbance at λmax irradiated vs unirradiated, ^a = average of multiple measurements) [%] | Compound
332 | 366 | 609 | 24181 | – | – | – | – | CCN(/C=C(\C(=O)C(F)(F)F)c1ccccc1)c1cccc(Br)c1 [Compound 225]
374 | 388 | 685 | 43151 | – | – | – | – | CCN(/C=C(\C(=O)C(F)(F)F)c1ccccc1)CCOC(=O)c1ccc2c(c1)CCN2/C=C(\C(=O)C(F)(F)F)c1ccccc1 [Compound 226]
356 | 382 | 786 | 33427 | 33 | 403 | – | – | COC(=O)c1ccc(N(/C=C(\C(=O)C(F)(F)F)c2ccccc2)c2ccccc2)cc1 [Compound 229]
355 | 381 | 522 | 27313 | 34 | 398 | – | – | CCCCC(CC)COC(=O)c1ccc(N(/C=C(\C(=O)C(F)(F)F)c2ccccc2)c2ccccc2)cc1 (stereo not shown) [Compound 230]
334 | 368 | 430 | 20462 | 35 | 373 | – | – | CCCCC(CC)COC(=O)c1cccc(N(/C=C(/C(=O)C(F)(F)F)c2ccccc2)CC)c1 (stereo not shown) [Compound 232]
361 | 386 | 965 | 37158 | 19 | 409 | – | – | O=C(/C(=C\N1CCc2cc(C(F)(F)F)ccc21)c1ccccc1)C(F)(F)F [Compound 235]
364 | 387 | 815 | 31379 | 19 | 409 | – | – | O=C(/C(=C\N1CCc2ccc(C(F)(F)F)cc21)c1ccccc1)C(F)(F)F [Compound 236]
348 | 375 | 728 | 25349 | 28 | 391 | – | – | CCN(/C=C(/C(=O)C(F)(F)F)c1ccccc1)c1ccc(C(=O)OC)cc1 [Compound 239]
318 | 353 | 544 | 30981 | 52 | 361 | – | – | CCN(/C=C(\C(=O)C(F)(F)F)c1ccccc1)CCCCCCN(/C=C(\C(=O)C(F)(F)F)c1ccccc1)CC [Compound 242]
360 | 387 | 327 | 15775 | 48 | 418 | – | – | CN(C)S(=O)(=O)c1ccc(C(=O)/C(=C/N(c2ccccc2)c2ccccc2)c2ccccc2)cc1 [Compound 265]
368 | 390 | 552 | 23870 | 46 | 429 | – | – | CN(C)S(=O)(=O)c1ccc(C(=O)/C(=C/N2CCc3ccccc32)c2ccccc2)cc1 [Compound 266]
376 | 392 | 703 | 30040 | 34 | 419 | – | – | COC(=O)c1ccc2c(c1)CCN2/C=C(/C(=O)C(=O)Oc1ccccc1)c1ccccc1 [Compound 281]
371 | 389 | 1150 | 45689 | 30 | 423 | – | – | COC(=O)c1ccc2c(c1)CCN2/C=C(/C(=O)c1ccc(C)cc1)c1ccccc1 [Compound 284]
370 | 389 | 1205 | 47867 | 46 | 423 | – | – | COC(=O)c1ccc2c(c1)CCN2/C=C(/C(=O)c1cccc(C)c1)c1ccccc1 [Compound 286]
356 | 370 | 1360 | 57009 | 28 | 383 | – | – | COC(=O)c1ccc2c(c1)CCN2/C=C(/C(=O)OC1(C)CCCCC1)c1ccccc1 [Compound 288]
344 | 373 | 492 | 17462 | 28 | 383 | – | – | CC(C)(C)C(=O)/C(=C/N(c1ccccc1)c1ccccc1)c1ccccc1 [Compound 294]
